Results on 1 substance are retold here after US20080306007A1, “AGENTS FOR PROPHYLAXIS OR TREATMENT OF NEUROLOGICAL RELATED DISEASES AND CONDITIONS” (Newcastle Innovation Limited, priority 2007, published 2008).

Assay [1] has as its system synaptosomes (SV exocytosis). As to the kind of experiment: KCl-evoked Ca2+-dependent glutamate release assay in synaptosomes. In kind it is cell-based, rat. To be noted: peptide preincubated 30 min; KCl stimulation. How it is done: (§1) In all SV recycling studies synaptosomes were prepared from rat cerebral cortex by centrifugation on discontinuous percoll gradients (Dunkley et al. 1986). The glutamate release assay was performed as described before (Cousin and Robinson 2000a). Data is presented as Ca^2+-dependent glutamate release, calculated as the difference between release in plus and minus Ca^2+ solutions. Penetratin peptides (Genemed Synthesis) were preincubated with the synaptosomes for 30 min before stimulation and had no effect on Ca^2+-independent release of glutamate.
A block in SV turnover cannot be ascribed to an inhibition of SVE until an effect on exocytosis has been excluded. Two independent exocytosis assays were conducted to assess this: endogenous glutamate release and FM2-10 unloading. Neither the DynI769-784AA nor DynI769-784EE peptide had any significant effect on KCl-evoked Ca^2+-dependent glutamate release (DynI769-784AA […]±8.4% of control; DynI769-784EE […]±9.5% of control, FIG. 5c). Both peptides had small effects on FM2-10 unloading evoked by 30 mM KCl (DynI769-784AA −81.1±0.8% of control; DynI769-784EE −82.3±0.6% of control, FIG. 5d). Finally, the extent of SVE inhibition by the peptides was quantified by calculating “retrieval efficiency” which takes into account prior exocytosis; a value of less than one indicating a selective SVE inhibition. […]

The subject of assay [2] is U2OS cells. As to the kind of experiment: Transferrin (Tfn) endocytosis (RME) in U2OS cells. To be noted: 15 min peptide preincubation at various concentrations, Tfn 15 min at 37° C. In kind it is cell-based. As to the method:
Briefly, non-neuronal U2OS cells were preincubated with vehicle only or each peptide at various concentrations for 15 min. Cells were then incubated with Tfn for 15 min at 37° C., acid washed, fixed and internalized Tfn was detected by fluorescence microscopy. Quantitative analysis of endocytosis in the presence of different concentrations of the peptides is shown as mean fluorescence as a percent of fluorescence in control cells. The results shown in FIG. 11 are representative of 2 independent experiments. Endocytosis in control cells (no peptide) is expressed as 100%.

Assay [3] concerns synaptosomes (synaptic vesicle turnover). As to the kind of experiment: SV turnover assay (FM2-10 loading/unloading) in synaptosomes. In kind it is cell-based, rat. How it is done: as §1
Loading of FM2-10 (Molecular Probes) into recycling synaptosomal SVs was measured as previously described. Data is presented as Ca^2+-dependent FM2-10 unloading, which is the difference between release after loading in plus and minus Ca^2+ solutions. Where indicated, synaptosomes were preincubated with penetratin peptide for 30 min prior to stimulation of FM2-10 loading. […] The same assay was used to monitor the effect of penetratin peptide on SV exocytosis. However, in this instance, the synaptosomes were loaded with FM2-10 in plus Ca^2+ Krebs-like solution and, where indicated, were preincubated with penetratin peptide for 30 min prior to stimulation of FM2-10 unloading. Data is presented as Ca^2+-dependent FM2-10 unloading. The SV internalisation assay was performed as previously described.
SVE in synaptosomes was measured to determine whether the phosphorylation sites in dynamin I play a direct role in SVE. Since isolated nerve terminals cannot be transfected with DNA, a membrane-permeable peptide strategy was employed. Mimetic peptides (DynI769-784AA (SEQ ID No. 8) and DynI769-784EE (SEQ ID No. 9)) were designed corresponding to the amino acid sequence of the dynamin I phospho-box (FIG. 5a) and were tagged with a penetratin heptapeptide RRMKWKK (SEQ ID No. 12) to facilitate their delivery into synaptosomes. Briefly, synaptosomes were preincubated in the presence or absence of either penetratin peptide (250 μM) prior to FM2-10 loading stimulated by 30 mM KCl. Accumulated FM2-10 was unloaded by another KCl stimulus (indicated by the solid bar). […] If the phosphorylation-regulated syndapin I interaction itself is essential for SVE, the penetratin-linked peptides may inhibit the process. […] The DynI769-784AA peptide (250 μM) inhibited turnover by more than 40% (57.1±2.1% of control), compared to less than 20% with the DynI769-784EE peptide (250 μM, 81.1±2.4% of control).

On to “DynI769-784AA: Dynamin I phospho-box mimetic peptide (residues 769-784), AA mutant, tagged with penetratin heptapeptide RRMKWKK (RRMKWKKPAGRRAPTSAPTPQRR; listed as Rattus norvegicus)”, for which the “KCl-evoked Ca2+-dependent glutamate release” value in assay [1] was 92.5±8.4 % of control. Further, the “endocytosis of transferrin (Tfn), RME” value in assay [2] was “without effect”. Besides, the “inhibition of SV turnover” value in assay [3] (peptide 250 μM) is listed as “more than 40%”. For the same substance, in assay [3] (peptide 250 μM, 30 min preincubation, FM2-10 loading with 30 mM KCl), the SV turnover is given as 57.1±2.1 % of control. Further, in assay [3] (using data from either exocytosis assay, value below one = selective SVE inhibition), the “retrieval efficiency (SV turnover/exocytosis)” value is “robust inhibition”.
